Relative viability data for seven cell lines are collected here from the supplement of paper PMC10307832.

Holding throughout (test): relative viability (nuclei count vs DMSO), 5 days (fraction); higher = more cells survive
Compound in test [1]: C1=CC2=NC=CN=C2C=C1/C=C/3\C(=O)NC(=O)S3
In a few lines: (§1)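 Lung cancer cell lines in 1536-well plates were kept overnight at 37 °C, then pinned with five library-drug doses (not always all listed) spaced by √10 on vehicle-anchored plates. After 5 days without medium change, cells were fixed, permeabilised and Hoechst-stained in one step, imaged at 4×, and nuclei were counted with MetaXpress. Viability is treated-well nuclei divided by vehicle-well nuclei, taken as the median over plates. Plates passed only with control CV below 25% and at least one doubling.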

Compound in a further test: CCN1CCN(c2ccc(Nc3cc(N(C)C(=O)Nc4c(Cl)c(OC)cc(OC)c4Cl)ncn3)cc2)CC1 [BGJ398]
A digest of the protocol: as §1

Compound in test [2]: C1=CC2=NC=CN=C2C=C1/C=C/3\C(=O)NC(=O)S3 + Cc1nc(NC(=O)N2CCC[C@H]2C(N)=O)sc1-c1ccnc(C(C)(C)C(F)(F)F)c1 [Alpelisib] (partner 2 µM)
In a few lines: (§2)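 Values are medians from duplicate plates. Each reflects relative viability, defined as the nuclei count of treated wells over that of vehicle wells. Lung cancer cell lines in 1536-well plates were pin-tool dosed one day after seeding with one drug alone or with a fixed anchor-drug dose plus five library-drug doses (not always all listed) in √10 steps, then fixed, stained and imaged at 4× after 5 days.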

Compound in the test “BGJ398 + Pemetrexed”: CCN1CCN(c2ccc(Nc3cc(N(C)C(=O)Nc4c(Cl)c(OC)cc(OC)c4Cl)ncn3)cc2)CC1 [BGJ398] + Nc1nc2[nH]cc(CCc3ccc(C(=O)N[C@@H](CCC(=O)O)C(=O)O)cc3)c2c(=O)[nH]1 [Pemetrexed] (partner 0.2 µM)
A digest of the protocol:
as §2

As to COR-L23, the relative viability in test [1] (0.02 µM) was found to be 0.967; in test [1] (0.06325 µM), 1.15; in test [1] (0.2 µM), 1.02; in test [1] (0.6325 µM) it was 0.938; in test [1] (2 µM), 0.976; in the test with BGJ398 (0.01 µM) it was 0.96. Also, the relative viability was 1.06 with BGJ398 (0.03162 µM); 1.12 in the test with BGJ398 (0.1 µM); 1.02 with BGJ398 (0.3162 µM); 1.09 with BGJ398 (1 µM); 0.736 in test [2] (first compound 0.02 µM); 0.896 in test [2] (first compound 0.06325 µM). Also, the relative viability in test [2] (first compound 0.2 µM) was 0.83; in test [2] (first compound 0.6325 µM) it was 0.72; in test [2] (first compound 2 µM), 0.696; with BGJ398 + Pemetrexed (first compound 0.01 µM), 0.189; with BGJ398 + Pemetrexed (first compound 0.03162 µM), 0.191; in the test with BGJ398 + Pemetrexed (first compound 0.1 µM), 0.192. Besides, the figures for the relative viability with BGJ398 + Pemetrexed (first compound 0.3162 µM) and in the test with BGJ398 + Pemetrexed (first compound 1 µM) were 0.208 and 0.193, respectively.

On to COR-L 105, for which the relative viability in test [1] (0.02 µM) came to 0.904; in test [1] (0.06325 µM) it was 1.05; in test [1] (0.2 µM), 1.01; in test [1] (0.6325 µM) it was 0.912; in test [1] (2 µM), 0.741; with BGJ398 (0.01 µM) it was 0.875. The relative viability came to 0.744 in the test with BGJ398 (0.03162 µM); 0.961 with BGJ398 (0.1 µM); 0.83 in the test with BGJ398 (0.3162 µM); 0.875 with BGJ398 (1 µM); 1.22 in test [2] (first compound 0.02 µM); 0.861 in test [2] (first compound 0.06325 µM). Moreover, the relative viability turned out to be 0.901 in test [2] (first compound 0.2 µM); 1.02 in test [2] (first compound 0.6325 µM); 0.751 in test [2] (first compound 2 µM); 1.36 in the test with BGJ398 + Pemetrexed (first compound 0.01 µM); 1.12 with BGJ398 + Pemetrexed (first compound 0.03162 µM); 0.879 with BGJ398 + Pemetrexed (first compound 0.1 µM). Moreover, the relative viability was found to be 1.12 with BGJ398 + Pemetrexed (first compound 0.3162 µM) and 0.936 with BGJ398 + Pemetrexed (first compound 1 µM).

In the case of EKVX, the relative viability turned out to be 0.927 in test [1] (0.02 µM); 0.885 in test [1] (0.06325 µM); 0.987 in test [1] (0.2 µM); 0.936 in test [1] (0.6325 µM); 0.786 in test [1] (2 µM); 0.865 in the test with BGJ398 (0.01 µM). In addition, the relative viability was 0.942 with BGJ398 (0.03162 µM); 1.08 in the test with BGJ398 (0.1 µM); 0.871 with BGJ398 (0.3162 µM); 0.986 in the test with BGJ398 (1 µM); 0.834 in test [2] (first compound 0.02 µM); 0.78 in test [2] (first compound 0.06325 µM). Moreover, the relative viability in test [2] (first compound 0.2 µM) was determined as 0.869; in test [2] (first compound 0.6325 µM), 0.784; in test [2] (first compound 2 µM), 0.771; with BGJ398 + Pemetrexed (first compound 0.01 µM), 0.385; with BGJ398 + Pemetrexed (first compound 0.03162 µM), 0.403; in the test with BGJ398 + Pemetrexed (first compound 0.1 µM), 0.452. Besides, the relative viability in the test with BGJ398 + Pemetrexed (first compound 0.3162 µM) is 0.38; with BGJ398 + Pemetrexed (first compound 1 µM), 0.378.

On to EMC-BAC-2, for which the relative viability in test [1] (0.02 µM) was found to be 0.951; in test [1] (0.06325 µM) it was 1.1; in test [1] (0.2 µM), 1.1; in test [1] (0.6325 µM), 0.944; in test [1] (2 µM), 0.554; with BGJ398 (0.01 µM) it was 1.17. Further, the relative viability in the test with BGJ398 (0.03162 µM) is 1.15; in the test with BGJ398 (0.1 µM) it was 0.964; with BGJ398 (0.3162 µM) it was 0.945; in the test with BGJ398 (1 µM), 0.942; in test [2] (first compound 0.02 µM), 0.707; in test [2] (first compound 0.06325 µM) it was 0.784. Moreover, the relative viability in test [2] (first compound 0.2 µM) worked out at 0.756; in test [2] (first compound 0.6325 µM), 0.709; in test [2] (first compound 2 µM) it was 0.75; in the test with BGJ398 + Pemetrexed (first compound 0.01 µM), 0.432; in the test with BGJ398 + Pemetrexed (first compound 0.03162 µM), 0.483; with BGJ398 + Pemetrexed (first compound 0.1 µM), 0.477. In addition, the relative viability in the test with BGJ398 + Pemetrexed (first compound 0.3162 µM) was 0.477; with BGJ398 + Pemetrexed (first compound 1 µM) it was 0.471.

Turning to EPLC-272H, the relative viability in test [1] (0.02 µM) is 0.939; in test [1] (0.06325 µM), 0.902; in test [1] (0.2 µM) it was 0.98; in test [1] (0.6325 µM), 0.799; in test [1] (2 µM) it was 0.733; in the test with BGJ398 (0.01 µM), 0.898. The relative viability with BGJ398 (0.03162 µM) amounted to 0.899; with BGJ398 (0.1 µM), 0.911; in the test with BGJ398 (0.3162 µM) it was 0.785; with BGJ398 (1 µM), 0.778; in test [2] (first compound 0.02 µM), 1.05; in test [2] (first compound 0.06325 µM) it was 1.05. For the same cell line, the relative viability came to 1.01 in test [2] (first compound 0.2 µM); 0.833 in test [2] (first compound 0.6325 µM); 0.939 in test [2] (first compound 2 µM); 0.32 with BGJ398 + Pemetrexed (first compound 0.01 µM); 0.447 with BGJ398 + Pemetrexed (first compound 0.03162 µM); 0.317 with BGJ398 + Pemetrexed (first compound 0.1 µM). Further, the figures for the relative viability with BGJ398 + Pemetrexed (first compound 0.3162 µM) and in the test with BGJ398 + Pemetrexed (first compound 1 µM) were 0.289 and 0.418, respectively.

Consider H3255, for which the relative viability in test [1] (0.02 µM) worked out at 0.984; in test [1] (0.06325 µM), 1.02; in test [1] (0.2 µM) it was 1.01; in test [1] (0.6325 µM), 0.934; in test [1] (2 µM), 0.946; in the test with BGJ398 (0.01 µM), 0.945. Besides, the relative viability came to 1 with BGJ398 (0.1 µM); 0.843 with BGJ398 (0.3162 µM); 0.999 in the test with BGJ398 (1 µM); 0.734 in test [2] (first compound 0.02 µM); 0.903 in test [2] (first compound 0.06325 µM); 0.661 in test [2] (first compound 0.2 µM). For the same cell line, the relative viability in test [2] (first compound 0.6325 µM) is 0.907; in test [2] (first compound 2 µM), 0.717; in the test with BGJ398 + Pemetrexed (first compound 0.01 µM), 0.608; with BGJ398 + Pemetrexed (first compound 0.03162 µM), 0.434; with BGJ398 + Pemetrexed (first compound 0.1 µM), 0.604; in the test with BGJ398 + Pemetrexed (first compound 0.3162 µM), 0.509. Besides, the relative viability in the test with BGJ398 + Pemetrexed (first compound 1 µM) was found to be 0.629.

On to HARA, for which the relative viability in test [1] (0.02 µM) is 0.84; in test [1] (0.06325 µM) it was 0.992; in test [1] (0.2 µM), 0.945; in test [1] (0.6325 µM) it was 0.778; in test [1] (2 µM) it was 0.955; in the test with BGJ398 (0.01 µM), 1.02. The relative viability in the test with BGJ398 (0.03162 µM) came out at 0.788; with BGJ398 (0.1 µM) it was 0.821; in the test with BGJ398 (0.3162 µM) it was 0.719; with BGJ398 (1 µM), 0.602; in test [2] (first compound 0.02 µM) it was 0.749; in test [2] (first compound 0.06325 µM) it was 0.696. Also, the relative viability in test [2] (first compound 0.2 µM) was 0.844; in test [2] (first compound 0.6325 µM), 0.806; in test [2] (first compound 2 µM), 0.859; with BGJ398 + Pemetrexed (first compound 0.01 µM), 0.237; in the test with BGJ398 + Pemetrexed (first compound 0.03162 µM), 0.22; with BGJ398 + Pemetrexed (first compound 0.1 µM), 0.215. Besides, the relative viability with BGJ398 + Pemetrexed (first compound 0.3162 µM) turned out to be 0.273; with BGJ398 + Pemetrexed (first compound 1 µM) it was 0.248.
